Experiments:
[1] = neutral aqueous media; Mertes, et al.; cited from earlier work
[2] = cited from earlier work
many tumor systems = settings: Heidelberger, 1965; 1970; cited from earlier work
herpes simplex = settings: cited from earlier work
HSV-2 = test: Antiherpes activity, inhibition of cytopathic effect (CPE), HSV-2; assay type: cell-based; settings: Human alphaherpesvirus 2, 48 h, human foreskin monolayers, mean IC of high and low virus inocula, CPE score lowered by 10 scoring units vs control, 2 days, read-out: Inhibitory Concentration (μM) HSV-2
Protocol: (§1) Each of the nucleosides was initially dissolved in a diluent containing 60% propylene glycol and 10% EtOH; subsequent dilutions used maintenance culture medium. Agents were assessed at tenfold dilutions with final concentrations ranging from 10,000 to 0.01 micromolar. Confluent human foreskin monolayers were maintained in 96-well microtiter plates using Eagle's Minimal Essential Medium supplemented with 2% fetal bovine serum, antibiotics and glutamine using standard methods.^40 Prior to virus inoculation, the medium was removed from each well and replaced with 100 μL of agent diluted in maintenance medium with differing concentrations in each horizontal row, beginning with the highest concentration in the upper row, with subsequent tenfold dilutions in the next rows and the last (control) row fed with agent-free maintenance medium. The virus inocula were then added, suspended in 100 μL of […] medium. A high-dose inoculum which induced nearly confluent (100%) cytopathic effect (CPE) two days later was added to the first five vertical columns of the plate (1-5) and, similarly, a low-dose inoculum inducing approximately 50% CPE in each well two days later was added to the next five vertical columns (6-10). To the last two columns, virus-free medium was added to serve as uninfected control wells in order to assess direct cellular cytotoxicity at each agent dilution. The plates were then incubated at 36.5° C. in 5% CO2 in air for two days, at which time they were read. The cytopathology of each well was read using an inverted microscope and scored from 0 to 4 (0=no CPE and 4=>95% CPE); for marginal or equivocal readings a+ or - is affixed to each score. […] The mean score of each five wells in a row receiving a given agent dilution and virus inoculum was then calculated and compared with an appropriate control row receiving no agent. […] When the value fell between two rows, simple arithmetic interpolation was done to calculate the agent concentrate at the point on a slope between the mean scores in the rows above and below this point. The IC values of each agent using the high and low virus inocula were then averaged yielding a final mean IC which was expressed as a micromolar drug concentration.

HSV-1 = test: Antiherpes activity, inhibition of cytopathic effect (CPE), HSV-1; assay type: cell-based; settings: Human alphaherpesvirus 1, 48 h, human foreskin monolayers, mean IC of high and low virus inocula, CPE score lowered by 10 scoring units vs control, 2 days, read-out: Inhibitory Concentration (μM) HSV-1
Protocol: as §1

[3] = Direct cellular cytotoxicity in uninfected control wells; assay type: cell-based, human; settings: foreskin cell monolayers; uninfected human foreskin monolayers; tenfold dilutions; 2 days; read-out: Toxic Concentration
Protocol: as §1

herpes = test: Antiherpes activity; assay type: cell-based; settings: statement in words on Table 1
Protocol: Each of the nucleosides was initially dissolved in a diluent containing 60% propylene glycol and 10% EtOH; subsequent dilutions used maintenance culture medium. Agents were assessed at tenfold dilutions with final concentrations ranging from 10,000 to 0.01 micromolar. […] The plates were then incubated at 36.5° C. in 5% CO2 in air for two days, at which time they were read. The cytopathology of each well was read using an inverted microscope and scored from 0 to 4 (0=no CPE and 4=>95% CPE); for marginal or equivocal readings a+ or - is affixed to each score. […] The mean score of each five wells in a row receiving a given agent dilution and virus inoculum was then calculated and compared with an appropriate control row receiving no agent. […] The IC values of each agent using the high and low virus inocula were then averaged yielding a final mean IC which was expressed as a micromolar drug concentration.

[4] = test system: human foreskin monolayers; test: Direct cellular cytotoxicity in uninfected control wells; assay type: cell-based; settings: statement in words on Table 1
Protocol: as §1

Structure (SMILES) | IC (CPE score lowered by 10 units) (HSV-2) | IC (CPE score lowered by 10 units) (HSV-1) | MCC at 48 h [3] | further results
O=c1[nH]cc(C(F)F)c(=O)[nH]1 [5-Difluoromethyluracil] | – | – | – | lability [1]: extremely labile in neutral aqueous media
O=c1[nH]c(=O)n([C@H]2C[C@H](O)[C@@H](CO)O2)cc1C(F)(F)F [F3 TDR, 1-(2'-deoxy-β-D-erythropentofuranosyl)-5-trifluoromethyluracil] | – | – | – | cytotoxic (reported) [2]: very cytotoxic; activity against many tumor systems (many tumor systems): has shown activity; activity against herpes simplex (herpes simplex; Heidelberger, 1965, 1970): has shown activity; antiherpetic (reported) (herpes simplex; reported): antiherpetic
Cc1cn([C@@H]2O[C@H](CO)[C@@H](O)[C@@H]2F)c(=O)[nH]c1=O [FMAU, 1-(2-Deoxy-2-fluoro-β-D-arabinofuranosyl)thymine, reference compound] | 0.05 µM | 0.1 µM | 1 mM | –
CC(=O)OC[C@H]1O[C@@H](n2cc(CF)c(=O)[nH]c2=O)[C@@H](F)[C@@H]1OC(C)=O [R=CH2 F, R^1=Ac, X=F, 1-(3,5-Di-0-acetyl-2-deoxy-2-fluoro-β-D-arabinofuranosyl)-5-monofluoromethyluracil] | 5.19 µM | 2.46 µM | 1 mM | –
CC(=O)OC[C@H]1O[C@@H](n2cc(CF)c(=O)[nH]c2=O)C[C@@H]1OC(C)=O [R=CH2 F, R^1=Ac, X=H, 1-(3',5'-di-0-acetyl-β-D-erythropentofuranosyl)-5-monofluoromethyluracil] | > 100 µM | > 100 µM | 1 mM | –
O=c1[nH]c(=O)n([C@@H]2O[C@H](CO)[C@@H](O)[C@@H]2F)cc1CF [R=CH2 F, R^1=H, X=F, 1-(2'-Deoxy-2'-fluoro-β-D-arabinofuranosyl)-5-monofluoromethyluracil] | 0.18 µM | 0.21 µM | 1 mM | –
O=c1[nH]c(=O)n([C@H]2C[C@H](O)[C@@H](CO)O2)cc1CF [R=CH2 F, R^1=H, X=H, 2'-deoxy-5-monofluoromethyluridine] | > 100 µM | > 100 µM | 1 mM | –
CC(=O)OC[C@H]1O[C@@H](n2cc(C)c(=O)[nH]c2=O)[C@@H](F)[C@@H]1OC(C)=O [R=CH3, R^1=Ac, X=F, 1-(3,5-di-0-acetyl-2-deoxy-2-fluoro-β-D-arabinofuranosyl)thymine, reference compound] | 1.23 µM | 0.44 µM | 1 mM | –
CC(=O)OC[C@H]1O[C@@H](n2cc(C(F)F)c(=O)[nH]c2=O)[C@@H](F)[C@@H]1OC(C)=O [R=CHF2, R^1=Ac, X=F] | 2.16 µM | 0.71 µM | 1 mM | –
CC(=O)OC[C@H]1O[C@@H](n2cc(C(F)F)c(=O)[nH]c2=O)C[C@@H]1OC(C)=O [R=CHF2, R^1=Ac, X=H, 1-(3',5'-Di-0-acetyl-2'-deoxy-β-D-erythropentofuranosyl)-5-difluoromethyluracil] | 25.1 µM | 17 µM | 1 mM | antiherpes activity (herpes): very potent antiherpes activity; cytotoxicity [4]: without serious cytotoxicity
O=c1[nH]c(=O)n([C@@H]2O[C@H](CO)[C@@H](O)[C@@H]2F)cc1C(F)F [R=CHF2, R^1=H, X=F, 1-(2'-Deoxy-2'-fluoro-β-D-arabinofuranosyl)-5-difluoromethyluracil] | 1.04 µM | 0.48 µM | 1 mM | –
O=c1[nH]c(=O)n([C@H]2C[C@H](O)[C@@H](CO)O2)cc1C(F)F [R=CHF2, R^1=H, X=H, 2'-Deoxy-5-difluoromethyluridine] | 1.66 µM | 1.4 µM | 1 mM | antiherpes activity (herpes): very potent antiherpes activity; cytotoxicity [4]: without serious cytotoxicity

From US4762823A, “Nucleosides of 5-monofluoromethyluracil and 5-difluoromethyluracil” (Sloan-Kettering Institute for Cancer Research, priority 1985, dated 1988)
